Assay results: patent US11051515B2, “3-acyl-benzamides and their use as herbicides” (Bayer Aktiengesellschaft, priority 2017, dated 2021)

How the values were obtained:
ALOMY [1] = assay: Pre-emergence action against ALOMY; format: in vivo, Alopecurus myosuroides; conditions: dosage 320 g/ha; pre-emergence; scored visually after 3 weeks vs untreated controls; 100% = plants have died, 0% = like control plants
How it was run: (§1)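 Seeds sown in sandy loam in wood-fiber pots and covered with soil. Greenhouse growth; visual damage scored after 3 weeks versus untreated controls (100% = dead, 0% = like control).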

AVEFA [2] = assay: Pre-emergence action against AVEFA; format: in vivo, Avena fatua; conditions: dosage 320 g/ha, scored visually after 3 weeks vs untreated controls
How it was run: as §1

CYPES [3] = assay: Pre-emergence action against CYPES; format: in vivo, Cyperus esculentus; conditions: pre-emergence, dosage 320 g/ha, scored visually after 3 weeks vs untreated controls
How it was run: as §1

ECHCG [4] = assay: Pre-emergence action against ECHCG; format: in vivo, Echinochloa crus-galli; conditions: pre-emergence, dosage 320 g/ha, scored visually after 3 weeks vs untreated controls
How it was run: as §1

LOLMU = assay: Pre-emergence action against LOLMU; format: in vivo, Lolium multiflorum; conditions: dosage 320 g/ha, scored visually after 3 weeks vs untreated controls
Source text: Seeds of monocotyledonous and dicotyledonous weed plants and crop plants are laid out in sandy loam soil in wood-fiber pots and covered with soil. The compounds of the invention, formulated in the form of wettable powders (WP) or as emulsion concentrates (EC), are then applied to the surface of the covering soil in the form of an aqueous suspension or emulsion at a water application rate equating to […], with addition of 0.2% wetting agent. After the treatment, the pots are placed in a greenhouse and kept under good growth conditions for the trial plants. The damage to the test plants is scored visually after a test period of 3 weeks by comparison with untreated controls (herbicidal activity in percent (%): 100% activity=the plants have died, 0% activity=like control plants).

SETVI [5] = assay: Pre-emergence action against SETVI; format: in vivo, Setaria viridis; conditions: pre-emergence, dosage 320 g/ha, scored visually after 3 weeks vs untreated controls
How it was run: as §1

ABUTH [6] = assay: Pre-emergence action against ABUTH; format: in vivo, Abutilon theophrasti; conditions: pre-emergence, dosage 320 g/ha, scored visually after 3 weeks vs untreated controls
How it was run: as §1

AMARE [7] = assay: Pre-emergence action against AMARE; format: in vivo, Amaranthus retroflexus; conditions: pre-emergence, dosage 320 g/ha, scored visually after 3 weeks vs untreated controls
How it was run: as §1

MATIN [8] = assay: Pre-emergence action against MATIN; format: in vivo, Matricaria inodora; conditions: Dosage 320 g/ha, pre-emergence
How it was run: as §1

PHBPU [9] = assay: Pre-emergence action against PHBPU; format: in vivo, Pharbitis purpurea; conditions: Dosage 320 g/ha, pre-emergence
How it was run: as §1

POLCO [10] = assay: Pre-emergence action against POLCO; format: in vivo, Polygonum convolvulus; conditions: Dosage 320 g/ha, pre-emergence
How it was run: as §1

STEME [11] = assay: Pre-emergence action against STEME; format: in vivo, Stellaria media; conditions: Dosage 320 g/ha, pre-emergence
How it was run: as §1

VIOTR [12] = assay: Pre-emergence action against VIOTR; format: in vivo, Viola tricolor; conditions: Dosage 320 g/ha, pre-emergence
How it was run: as §1

VERPE [13] = assay: Pre-emergence action against VERPE; format: in vivo, Veronica persica; conditions: Dosage 320 g/ha, pre-emergence
How it was run: as §1

CYPES [14] = assay: Post-emergence action against CYPES; format: in vivo, Cyperus esculentus; conditions: post-emergence, dosage 80 g/ha, visual assessment about 3 weeks after treatment vs untreated controls
How it was run: (§2)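 Post-emergence foliar spray on greenhouse plants at the one-leaf stage, using wettable-powder or emulsion-concentrate formulations in water (600 to […], plus 0.2% wetting agent). Damage scored by eye roughly 3 weeks later against untreated plants: 0% = like control, 100% = dead.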

ECHCG [15] = assay: Post-emergence action against ECHCG; format: in vivo, Echinochloa crus-galli; conditions: post-emergence, dosage 80 g/ha, visual assessment about 3 weeks after treatment vs untreated controls
How it was run: as §2

SETVI [16] = assay: Post-emergence action against SETVI; format: in vivo, Setaria viridis; conditions: post-emergence, dosage 80 g/ha, visual assessment about 3 weeks after treatment vs untreated controls
How it was run: as §2

ABUTH [17] = assay: Post-emergence action against ABUTH; format: in vivo, Abutilon theophrasti; conditions: post-emergence, dosage 80 g/ha, visual assessment about 3 weeks after treatment vs untreated controls
How it was run: as §2

AMARE [18] = assay: Post-emergence action against AMARE; format: in vivo, Amaranthus retroflexus; conditions: post-emergence, dosage 80 g/ha, visual assessment about 3 weeks after treatment vs untreated controls
How it was run: as §2

MATIN [19] = assay: Post-emergence action against MATIN; format: in vivo, Matricaria inodora; conditions: post-emergence, dosage 80 g/ha, visual assessment about 3 weeks after treatment vs untreated controls
How it was run: as §2

PHBPU [20] = assay: Post-emergence action against PHBPU; format: in vivo, Pharbitis purpurea; conditions: post-emergence, dosage 80 g/ha
How it was run: as §2

POLCO [21] = assay: Post-emergence action against POLCO; format: in vivo, Polygonum convolvulus; conditions: post-emergence, dosage 80 g/ha
How it was run: as §2

STEME [22] = assay: Post-emergence action against STEME; format: in vivo, Stellaria media; conditions: post-emergence, dosage 80 g/ha
How it was run: as §2

VIOTR [23] = assay: Post-emergence action against VIOTR; format: in vivo, Viola tricolor; conditions: post-emergence, dosage 80 g/ha
How it was run: as §2

VERPE [24] = assay: Post-emergence action against VERPE; format: in vivo, Veronica persica; conditions: dosage 80 g/ha
How it was run: as §2

ALOMY [25] = assay: Post-emergence action against ALOMY; format: in vivo, Alopecurus myosuroides; conditions: Dosage 80 g/ha, post-emergence
How it was run: as §2

AVEFA [26] = assay: Post-emergence action against AVEFA; format: in vivo, Avena fatua; conditions: post-emergence, dosage 80 g/ha, visual assessment about 3 weeks after treatment vs untreated controls
How it was run: as §2

## CCn1nnnc1NC(=O)c1ccc(C(F)(F)F)c(C(C)=O)c1SC [2-58]
ALOMY [1]
  Pre-emergence action against ALOMY (herbicidal activity in percent): 100%
AVEFA [2]
  Pre-emergence action against AVEFA (herbicidal activity): 90%
CYPES [3]
  Pre-emergence action against CYPES (herbicidal activity): 100%
ECHCG [4]
  Pre-emergence action against ECHCG (herbicidal activity): 100%
LOLMU
  Pre-emergence action against LOLMU (herbicidal activity): 90%
SETVI [5]
  SETVI (Table B8, pre-emergence herbicidal activity): 100%
ABUTH [6]
  Pre-emergence action against ABUTH (herbicidal activity): 100%
AMARE [7]
  Pre-emergence action against AMARE (herbicidal activity): 100%
MATIN [8]
  Pre-emergence action against MATIN: 100%
PHBPU [9]
  Pre-emergence action against PHBPU: 80%
POLCO [10]
  Pre-emergence action against POLCO: 100%
STEME [11]
  Pre-emergence action against STEME: 90%
VIOTR [12]
  Pre-emergence action against VIOTR: 100%
VERPE [13]
  Pre-emergence action against VERPE: 100%
CYPES [14]
  Post-emergence action against CYPES (herbicidal action in percent): 90%
ECHCG [15]
  Post-emergence action against ECHCG (herbicidal action in percent): 90%
SETVI [16]
  Post-emergence action against SETVI (herbicidal action in percent): 100%
ABUTH [17]
  Post-emergence action against ABUTH (herbicidal action in percent): 100%
AMARE [18]
  Post-emergence action against AMARE (herbicidal action in percent): 100%
MATIN [19]
  Post-emergence action against MATIN (herbicidal action in percent): 100%
PHBPU [20]
  Post-emergence action against PHBPU: 100
POLCO [21]
  Post-emergence action against POLCO: 90
STEME [22]
  Post-emergence action against STEME: 100
VIOTR [23]
  Post-emergence action against VIOTR: 100
VERPE [24]
  Post-emergence action against VERPE: 100

## CCn1nnnc1NC(=O)c1ccc(SC)c(C(=O)C2CC2)c1Cl [2-123]
ALOMY [1]
  Pre-emergence action against ALOMY (herbicidal activity in percent): 100%
AVEFA [2]
  Pre-emergence action against AVEFA (herbicidal activity): 80%
CYPES [3]
  Pre-emergence action against CYPES (herbicidal activity): 90%
ECHCG [4]
  Pre-emergence action against ECHCG (herbicidal activity): 100%
LOLMU
  Pre-emergence action against LOLMU (herbicidal activity): 90%
SETVI [5]
  SETVI (Table B8, pre-emergence herbicidal activity): 100%
ABUTH [6]
  Pre-emergence action against ABUTH (herbicidal activity): 100%
AMARE [7]
  Pre-emergence action against AMARE (herbicidal activity): 100%
MATIN [8]
  Pre-emergence action against MATIN: 100%
STEME [11]
  Pre-emergence action against STEME: 100%
VIOTR [12]
  Pre-emergence action against VIOTR: 100%
VERPE [13]
  Pre-emergence action against VERPE: 100%
ALOMY [25]
  Post-emergence action against ALOMY: 90%
AVEFA [26]
  Post-emergence action against AVEFA (herbicidal action in percent): 100%
ECHCG [15]
  Post-emergence action against ECHCG (herbicidal action in percent): 100%
SETVI [16]
  Post-emergence action against SETVI (herbicidal action in percent): 100%
ABUTH [17]
  Post-emergence action against ABUTH (herbicidal action in percent): 100%
AMARE [18]
  Post-emergence action against AMARE (herbicidal action in percent): 100%
MATIN [19]
  Post-emergence action against MATIN (herbicidal action in percent): 100%
PHBPU [20]
  Post-emergence action against PHBPU: 100
STEME [22]
  Post-emergence action against STEME: 100
VIOTR [23]
  Post-emergence action against VIOTR: 100
VERPE [24]
  Post-emergence action against VERPE: 100

## CCn1nnnc1NC(=O)c1ccc(C(F)(F)F)c(C(=O)C2CC2)c1OC [2-50]
ALOMY [1]
  Pre-emergence action against ALOMY (herbicidal activity in percent): 100%
AVEFA [2]
  Pre-emergence action against AVEFA (herbicidal activity): 100%
CYPES [3]
  Pre-emergence action against CYPES (herbicidal activity): 100%
ECHCG [4]
  Pre-emergence action against ECHCG (herbicidal activity): 100%
LOLMU
  Pre-emergence action against LOLMU (herbicidal activity): 100%
SETVI [5]
  SETVI (Table B8, pre-emergence herbicidal activity): 100%
ABUTH [6]
  Pre-emergence action against ABUTH (herbicidal activity): 100%
AMARE [7]
  Pre-emergence action against AMARE (herbicidal activity): 100%
MATIN [8]
  Pre-emergence action against MATIN: 100%
PHBPU [9]
  Pre-emergence action against PHBPU: 100%
POLCO [10]
  Pre-emergence action against POLCO: 80%
STEME [11]
  Pre-emergence action against STEME: 100%
VIOTR [12]
  Pre-emergence action against VIOTR: 100%
VERPE [13]
  Pre-emergence action against VERPE: 100%
ALOMY [25]
  Post-emergence action against ALOMY: 90%
AVEFA [26]
  Post-emergence action against AVEFA (herbicidal action in percent): 90%
ECHCG [15]
  Post-emergence action against ECHCG (herbicidal action in percent): 100%
SETVI [16]
  Post-emergence action against SETVI (herbicidal action in percent): 100%
ABUTH [17]
  Post-emergence action against ABUTH (herbicidal action in percent): 90%
AMARE [18]
  Post-emergence action against AMARE (herbicidal action in percent): 100%
MATIN [19]
  Post-emergence action against MATIN (herbicidal action in percent): 100%
PHBPU [20]
  Post-emergence action against PHBPU: 100
POLCO [21]
  Post-emergence action against POLCO: 90
STEME [22]
  Post-emergence action against STEME: 100
VIOTR [23]
  Post-emergence action against VIOTR: 100
VERPE [24]
  Post-emergence action against VERPE: 90
